In the SangsterLogP compilation:

What was measured:
[1] = not given; remark: listed apart in the source
[2] = method code SF-GLC, from DOI: 10.1007/bf00343116, PMID: 4026577
[3] = method code SF-AS, from DOI: 10.1007/bf02922495
[4] = method code SF-AS, from DOI: 10.1007/s001289900721, PMID: 9657823
[5] = method code SF-GLC,AS, from DOI: 10.2134/jeq1981.00472425001000030028x
[6] = method code SF, from DOI: 10.1016/0378-5173(87)90234-1
[7] = method code SF-GLC, from DOI: 10.1016/s0003-2670(00)84505-5
[8] = not given; remark: listed apart in the source
[9] = method code SF-AS, from DOI: 10.1021/jm00069a002, PMID: 8355246; details: pH 7.4
[10] = not given; remark: listed apart in the source
[11] = method code SF-AS, from DOI: 10.1016/0006-2952(65)90227-3, PMID: 14322976; details: pH 6.8
[12] = not given; remark: listed apart in the source
[13] = pH 5.6
[14] = method code SF, from DOI: 10.1002/em.2850190108, PMID: 1732104
[15] = method code SF-AS, from DOI: 10.1021/jm00304a030, PMID: 5793164; details: pH 7.4
[16] = method code SF-AS, from DOI: 10.1111/j.2042-7158.1989.tb06384.x, PMID: 2576447; details: pH 7.4
[17] = not given; remark: listed apart in the source
[18] = not given; remark: listed apart in the source
[19] = method code SF-AS, from DOI: 10.1002/jhet.5570150704
[20] = method code SF-GLC, from DOI: 10.1016/0045-6535(83)90264-3
[21] = method code SF-HPLC, from Blakemore, C.; Brown, H.; Durant, J.; Emmett, C.; Ganellin, R.; Parsons, E.; Rasmussen, C. (1980). SK&F 92994: a new histamine H2-receptor antagonist. COMMUNICATIONS: Part II. Br. J. Pharmacol., …
[22] = not given; remark: listed apart in the source
[23] = not given; remark: listed apart in the source
[24] = method code SF-RC, from DOI: 10.1002/ps.2780130506
[25] = not given; remark: listed apart in the source
[26] = method code SF-HPLC, from DOI: 10.1002/jat.2550130210, PMID: 8486911; details: pH 13.0
[27] = method code SF-C, from DOI: 10.1021/ja00901a033
[28] = method code SF-GLC, from DOI: 10.1021/j100260a019
[29] = not given; remark: listed apart in the source
[30] = method code SF-RC, from DOI: 10.1016/0014-2999(79)90231-0, PMID: 527663
[31] = not given; remark: listed apart in the source
[32] = not given; remark: listed apart in the source
[33] = not given; remark: listed apart in the source
[34] = method code SF-AS, from DOI: 10.1016/j.ejmech.2003.11.003, PMID: 14987836
[35] = not given; remark: listed apart in the source
[36] = not given; remark: listed apart in the source
[37] = method code SF-MS, from DOI: 10.1016/j.fluid.2014.01.017; details: pH 7.6
[38] = method code SF-AS, from Frater-Schröder, M.; Alder, S.; Zbinden, G. (1976). Neurotoxic effects of pyridoxine and analogs in rats. Proc. Eur. Soc. Toxicol, 17, 277-284.; details: pH 7.4
[39] = method code SF, from Korenman, Y. (1975). Extraction of hydroxybenzoic acids and some of their derivatives from aqueous solution. Zh. Prikl. Khim., 48(6)1472-1474.; details: pH 2.0
[40] = method code SF-RC, from PMID: 3794812

## Cc1cccc(C)c1
other
  logP: 3.37

## O=[N+]([O-])C1NC=CN1C1OC(CI)C(O)C1O (configuration not stated)
[1]
  logP: 0.7

## N#CCCCCCCC#N
[2]
  logP: 0.59

## N#CC(C#N)=Cc1ccc(Br)o1
[3]
  logP: 2.28

## COc1ccc(OC)c(C=O)c1
[4]
  logP: 1.91

## Nc1c([N+](=O)[O-])cc(C(F)(F)F)cc1[N+](=O)[O-]
[5]
  logP: 2.29

## O=C(OC1CCCCC1)n1cc(F)c(=O)[nH]c1=O
[6]; pH 4.0
  logD: 1.42

## COc1cc(Cl)c(Cl)cc1O
[7]
  logP: 3.19

## CC(=O)CCCCn1c(=O)c2c(ncn2C)n(C)c1=O
[8]
  logP: 0.29

## CCc1[nH]ccc(=O)c1O
[9]
  logD: 0.05

## Nc1ccc(O)c([N+](=O)[O-])c1
[10]
  logP: 0.96

## CC(C)c1ccccc(=O)c1O
[11]
  logD: 0.96

## Cc1cccc(C(=O)O)n1
[12]
  logP: -1.22

## O=Cc1cc(O)ccc1O
[4]
  logP: 0.54

## NS(=O)(=O)c1ccc(O)cc1
[13]
  logD: 0.06

## CC(=O)c1ccccc1[N+](=O)[O-]
[14]
  logP: 1.53

## O=C1Cc2ccccc2N1
[15]
  logD: 1.15

## CCCn1c(=O)n(C)c(=O)c2nc[nH]c21
[16]
  logD: 1.02

## NS(=O)(=O)c1nnc(-c2ccccc2Cl)s1
[17]
  logP: 1.43

## COc1ccc(N)cc1
[18]
  logP: 0.98

## CNC(=O)OCc1cccc(COC(=O)NC)n1
[19]
  logP: 0.24

## O=C(O)c1c(C(=O)O)c(C(=O)O)c(C(=O)O)c(C(=O)O)c1C(=O)O
[20]
  logP: -1.45

## CN(Cc1cccc(Br)c1)N=O
[21]
  logP: 1.65

## CN(C)c1cc[n+]([O-])cc1
[22]
  logP: -0.9

## [O-][n+]1ccc(-c2ccccc2)cc1
[22]
  logP: 0.93

## Cc1c(Cl)cccc1[N+](=O)[O-]
[23]
  logP: 3.09

## CSc1cccc(NC(N)=O)c1
[24]
  logP: 1.57

## CCCCCC(CCC)C(=O)O (configuration not stated)
[25]
  logP: 3.2

## CC(C)CNCC(C)C
[26]
  logD: 2.67

## CSc1nc2ccccc2s1
[20]
  logP: 3.15

## CC(=O)c1ccc(OCC(=O)O)cc1
[27]
  logP: 1.08

## CCC(=O)n1c(=O)[nH]cc(F)c1=O
[6]; pH 7.4
  logD: -0.21

## CC(C)COCC(C)C
[28]
  logP: 2.78

## CC(CS)C(=O)N1CCC[C@H]1C(=O)O (some centres not stated)
[29]
  logP: 0.42

## Cn1cnc2c1c(=O)[nH]c(=O)n2C
[8]
  logP: -0.82

## N#CCCCCCC#N
[2]
  logP: 0.05

## O=C(O)[C@H]1O[C@H](O)[C@H](O)[C@@H](O)[C@@H]1O
[30]; pH 1.0
  logD: -2.57

## CN(Cc1ccc(Br)cc1)N=O
[21]
  logP: 1.57

## O=[N+]([O-])c1cccc2cccc([N+](=O)[O-])c12
[14]
  logP: 2.52

## Cc1ccccc1[N+](=O)[O-]
[31]
  logP: 2.17

## O=[N+]([O-])c1nccn1C1OCC(I)CC1O (configuration not stated)
[1]
  logP: -0.05

## COc1cc(Cl)c(Cl)c(Cl)c1
[32]
  logP: 4.1

## COc1cccc(C(=O)O)c1
[33]
  logP: 1.9

## CCN(CC)C(C)=O
[31]
  logP: 0.37

## Cn1c(=O)[nH]c(=O)c2nc[nH]c21
[16]
  logD: -0.72

## C=CCNCC=C
[26]
  logD: 1.08

## c1ccc2[nH]ncc2c1
[15]
  logD: 1.82

## COC(=O)[C@@H]1CCCN1S(=O)(=O)N(CCCl)N=O
[34]
  logP: -0.19

## O=C(O)c1cccc(C(=O)O)n1
[12]
  logP: 0.45

## O=C(O)c1ccccc1Br
[35]
  logP: 2.19

## Brc1ccccc1-c1nnn[nH]1
[36]
  logP: 1.81

## CCCCCCCC=O
[37]
  logD: 2.53

## c1ccc(-c2nnn[nH]2)cc1
[36]
  logP: 1.5

## CCOc1cccc(O)c1
[13]
  logD: 1.98

## CC(=O)c1ccccc1N
[18]
  logP: 1.25

## O=C(O)c1cccc(O)c1
[35]
  logP: 1.39

## CCCC/C=C/C=O
[37]
  logD: 2.06

## COc1c(O)c(Cl)c(Cl)c(Cl)c1Cl
[7]
  logP: 4.42

## Cc1cccc([N+](=O)[O-])c1
[23]
  logP: 2.4

## Cc1nc(-c2ccccn2)no1
[19]
  logP: 0.79

## Cc1ncc(CO)c(CO)c1O
[38]
  logD: -0.77

## O=C(O)c1cc(Br)ccc1O
[39]
  logD: 2.87

## CCCNc1c([N+](=O)[O-])cc(C(F)(F)F)cc1[N+](=O)[O-]
[5]
  logP: 3.65

## O=C(O)COc1ccc(Br)cc1
[27]
  logP: 2.45

## NS(=O)(=O)c1cc2c(cc1Cl)NC(C(Cl)Cl)NS2(=O)=O (configuration not stated)
[29]
  logP: 0.64

## O=Nc1ccc(O)c(=O)cc1
[11]
  logD: 0.83

## CCOc1cc(Cl)c(Cl)c(Cl)c1
[32]
  logP: 4.61

## CCCCNC(=O)CCn1ccc(=O)c(O)c1C
[9]
  logD: -0.1

## NC(=O)c1ccccc1C(N)=O
[33]
  logP: 1.08

## Nc1ccccc1N
[10]
  logP: 0.15

## CCC(c1ccccc1)c1c(O)c2ccccc2oc1=O (configuration not stated)
[30]
  logP: 3.62

## NS(=O)(=O)c1nnc(NS(=O)(=O)c2ccccc2)s1
[17]
  logP: 0.22

## COCC(O)Cn1c(Br)cnc1[N+](=O)[O-] (configuration not stated)
[40]
  logP: 0.16

## NC(=O)Nc1ccc(Cl)cc1
[24]
  logP: 1.8

## N#Cc1ccccc1
other
  logP: 1.5

## O=C(O)c1ccc(O)c(O)c1O
[39]
  logD: 1.05

## Cc1ncc(CO)c(C=O)c1O
[38]
  logD: -0.82

## COCC(O)Cn1c([N+](=O)[O-])nc(Br)c1Br (configuration not stated)
[40]
  logP: 1.02

## Cc1ccc(C=C(C#N)C#N)o1
[3]
  logP: 2.03

## CCC(CC)C(=O)O
[25]
  logP: 1.68

## CC1CCC(C)O1 (configuration not stated)
[28]
  logP: 1.22

## O=NN(CCCl)S(=O)(=O)N1CCCCC1
[34]
  logP: 1.03
